Common to all, as to assay: KinomeScan profiling
What all share (assay type): binding

For one assay, the target named is TRKA (Homo sapiens, UniProt P04629). Particulars: read-out: % control. Summed up:
(§1)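 At 1 μM in DMSO, compounds are run through a broad 468-member kinase panel. The luminescent read-out is normalised so that vehicle gives 100% and a positive control gives 0%; any kinase falling below 35% is treated as a target.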

The target of the next assay is RET (Homo sapiens, UniProt P07949). Conditions: read-out: % control. Summed up: as §1
In assay [1] the target is T1, ABL1(F317L)-nonphosphorylated (Homo sapiens, UniProt P00519, F317L).
T1 construct: purchased KinomeScan®
Particulars: read-out: % control. In a few lines: as §1

Another assay addresses QSK (Homo sapiens, UniProt Q9Y2K2). Particulars: read-out: % control. In a few lines: as §1
Another assay addresses T2, PRKG2 (Homo sapiens, UniProt Q13237).
T2 sequence (Q13237 1-762): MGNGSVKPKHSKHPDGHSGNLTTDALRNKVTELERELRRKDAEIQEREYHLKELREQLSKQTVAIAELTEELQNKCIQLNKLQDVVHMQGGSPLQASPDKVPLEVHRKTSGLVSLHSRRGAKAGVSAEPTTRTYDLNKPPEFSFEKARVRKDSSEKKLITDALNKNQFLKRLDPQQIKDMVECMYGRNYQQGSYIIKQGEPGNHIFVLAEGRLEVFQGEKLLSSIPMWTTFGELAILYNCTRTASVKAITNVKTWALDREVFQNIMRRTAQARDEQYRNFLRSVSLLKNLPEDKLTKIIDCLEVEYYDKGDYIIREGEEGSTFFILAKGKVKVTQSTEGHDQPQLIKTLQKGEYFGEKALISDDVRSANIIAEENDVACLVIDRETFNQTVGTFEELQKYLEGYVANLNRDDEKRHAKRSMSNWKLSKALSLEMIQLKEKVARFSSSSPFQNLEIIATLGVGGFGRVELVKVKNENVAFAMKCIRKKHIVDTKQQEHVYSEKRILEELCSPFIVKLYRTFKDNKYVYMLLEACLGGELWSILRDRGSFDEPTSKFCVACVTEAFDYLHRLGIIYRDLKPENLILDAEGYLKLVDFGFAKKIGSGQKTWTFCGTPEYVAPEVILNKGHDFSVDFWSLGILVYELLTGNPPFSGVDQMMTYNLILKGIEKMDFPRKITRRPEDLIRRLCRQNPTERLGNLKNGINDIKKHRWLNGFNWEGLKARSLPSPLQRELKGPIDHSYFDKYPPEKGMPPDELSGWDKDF
Particulars: PRKG2, 1 μM; read-out: % control. Summed up:
as §1

A further assay deals with T3, ACVR1 (Homo sapiens, UniProt Q04771).
T3 construct: purchased KinomeScan®
T3 sequence (Q04771 21-509): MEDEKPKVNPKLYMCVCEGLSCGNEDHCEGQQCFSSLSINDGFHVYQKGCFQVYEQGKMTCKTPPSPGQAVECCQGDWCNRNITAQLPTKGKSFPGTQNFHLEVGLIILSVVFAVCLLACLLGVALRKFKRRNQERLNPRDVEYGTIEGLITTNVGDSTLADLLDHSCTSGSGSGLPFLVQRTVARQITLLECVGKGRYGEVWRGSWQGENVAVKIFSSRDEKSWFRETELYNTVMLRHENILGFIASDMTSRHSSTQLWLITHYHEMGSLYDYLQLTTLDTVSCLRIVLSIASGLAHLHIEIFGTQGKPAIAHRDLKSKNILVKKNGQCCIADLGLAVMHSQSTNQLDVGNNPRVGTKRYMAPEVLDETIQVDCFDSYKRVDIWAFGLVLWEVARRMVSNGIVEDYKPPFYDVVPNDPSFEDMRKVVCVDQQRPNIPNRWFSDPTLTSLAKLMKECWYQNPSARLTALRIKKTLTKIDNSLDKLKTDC
Conditions: ACVR1, 1 μM; read-out: % control. In a few lines:
as §1

A further assay concerns the target T4, BRAF (Homo sapiens, UniProt P15056).
T4 construct: purchased KinomeScan®
Conditions: read-out: % control. In a few lines:
as §1

The target in assay [2] is T5, TYK2(JH2domain-pseudokinase) (Homo sapiens, UniProt P29597).
T5 construct: TYK2(JH2domain-pseudokinase)
Conditions: read-out: % control. Summed up:
as §1

In another assay the target is NEK4 (Homo sapiens, UniProt P51957). Particulars: NEK4, 1 μM; read-out: % control. Summed up:
as §1

For the next assay, the target named is RET(V804M) (Homo sapiens, UniProt P07949, V804M). Particulars: read-out: % control. In a few lines: as §1
For a further assay, the target named is EGFR(G719C) (Homo sapiens, UniProt P00533, G719C). Particulars: read-out: % control. Summed up:
as §1

The target in the next assay is WNK4 (Homo sapiens, UniProt Q96J92). Conditions: WNK4, 1 μM; read-out: % control. In a few lines: as §1
Assay [3] addresses T6, ABL1(T315I)-phosphorylated (Homo sapiens, UniProt P00519, T315I).
T6 construct: purchased KinomeScan®
Conditions: read-out: % control. Summed up:
as §1

RET(V804M), sequence (P07949 29-1114 V804M): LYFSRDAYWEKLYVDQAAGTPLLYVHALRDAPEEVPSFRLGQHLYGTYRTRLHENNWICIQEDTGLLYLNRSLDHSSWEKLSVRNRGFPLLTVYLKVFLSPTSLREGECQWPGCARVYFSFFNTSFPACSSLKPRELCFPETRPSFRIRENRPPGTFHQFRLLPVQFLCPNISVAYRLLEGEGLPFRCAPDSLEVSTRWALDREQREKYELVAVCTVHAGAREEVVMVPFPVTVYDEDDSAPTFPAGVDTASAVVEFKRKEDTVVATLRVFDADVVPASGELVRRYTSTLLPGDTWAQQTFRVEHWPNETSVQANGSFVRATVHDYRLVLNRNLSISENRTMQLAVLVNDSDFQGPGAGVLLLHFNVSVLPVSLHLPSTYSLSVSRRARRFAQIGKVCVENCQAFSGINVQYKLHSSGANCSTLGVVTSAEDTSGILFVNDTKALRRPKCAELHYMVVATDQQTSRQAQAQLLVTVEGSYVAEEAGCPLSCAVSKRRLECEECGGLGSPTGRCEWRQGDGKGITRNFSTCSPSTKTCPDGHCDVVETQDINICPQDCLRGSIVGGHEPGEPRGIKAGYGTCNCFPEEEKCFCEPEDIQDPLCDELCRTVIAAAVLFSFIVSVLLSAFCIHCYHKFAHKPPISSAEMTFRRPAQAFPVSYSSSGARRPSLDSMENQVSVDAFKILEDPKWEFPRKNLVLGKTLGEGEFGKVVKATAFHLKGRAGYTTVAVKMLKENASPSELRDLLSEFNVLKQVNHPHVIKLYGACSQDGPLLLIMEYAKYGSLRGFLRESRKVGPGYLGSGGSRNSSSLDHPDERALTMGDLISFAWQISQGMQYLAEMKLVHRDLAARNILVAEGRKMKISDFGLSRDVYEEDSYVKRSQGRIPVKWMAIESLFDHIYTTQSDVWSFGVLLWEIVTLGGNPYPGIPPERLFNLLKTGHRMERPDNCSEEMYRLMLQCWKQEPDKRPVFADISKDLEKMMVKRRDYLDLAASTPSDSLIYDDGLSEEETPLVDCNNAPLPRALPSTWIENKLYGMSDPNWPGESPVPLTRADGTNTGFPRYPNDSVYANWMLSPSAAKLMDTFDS
T4 sequence (P15056 whole entry): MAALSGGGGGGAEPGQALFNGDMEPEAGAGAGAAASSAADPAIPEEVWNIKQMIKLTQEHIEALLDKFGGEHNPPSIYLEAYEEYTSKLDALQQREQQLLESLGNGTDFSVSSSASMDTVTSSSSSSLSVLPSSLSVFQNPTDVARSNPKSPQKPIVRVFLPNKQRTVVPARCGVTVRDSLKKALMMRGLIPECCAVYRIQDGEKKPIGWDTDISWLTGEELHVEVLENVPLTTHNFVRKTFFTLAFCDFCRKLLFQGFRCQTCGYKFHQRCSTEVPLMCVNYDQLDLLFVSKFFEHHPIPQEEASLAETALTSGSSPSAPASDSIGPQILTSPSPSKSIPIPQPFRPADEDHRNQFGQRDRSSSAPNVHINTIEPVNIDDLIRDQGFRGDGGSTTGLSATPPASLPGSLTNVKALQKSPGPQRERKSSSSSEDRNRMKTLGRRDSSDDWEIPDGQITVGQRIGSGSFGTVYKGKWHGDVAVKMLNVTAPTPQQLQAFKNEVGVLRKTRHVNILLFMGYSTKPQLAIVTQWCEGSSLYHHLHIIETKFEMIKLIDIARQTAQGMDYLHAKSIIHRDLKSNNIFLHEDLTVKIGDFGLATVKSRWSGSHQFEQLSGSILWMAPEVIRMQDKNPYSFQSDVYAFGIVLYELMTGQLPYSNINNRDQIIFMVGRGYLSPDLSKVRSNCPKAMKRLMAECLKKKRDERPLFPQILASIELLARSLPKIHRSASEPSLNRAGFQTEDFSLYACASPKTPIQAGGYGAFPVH
WNK4, sequence (Q96J92 whole entry): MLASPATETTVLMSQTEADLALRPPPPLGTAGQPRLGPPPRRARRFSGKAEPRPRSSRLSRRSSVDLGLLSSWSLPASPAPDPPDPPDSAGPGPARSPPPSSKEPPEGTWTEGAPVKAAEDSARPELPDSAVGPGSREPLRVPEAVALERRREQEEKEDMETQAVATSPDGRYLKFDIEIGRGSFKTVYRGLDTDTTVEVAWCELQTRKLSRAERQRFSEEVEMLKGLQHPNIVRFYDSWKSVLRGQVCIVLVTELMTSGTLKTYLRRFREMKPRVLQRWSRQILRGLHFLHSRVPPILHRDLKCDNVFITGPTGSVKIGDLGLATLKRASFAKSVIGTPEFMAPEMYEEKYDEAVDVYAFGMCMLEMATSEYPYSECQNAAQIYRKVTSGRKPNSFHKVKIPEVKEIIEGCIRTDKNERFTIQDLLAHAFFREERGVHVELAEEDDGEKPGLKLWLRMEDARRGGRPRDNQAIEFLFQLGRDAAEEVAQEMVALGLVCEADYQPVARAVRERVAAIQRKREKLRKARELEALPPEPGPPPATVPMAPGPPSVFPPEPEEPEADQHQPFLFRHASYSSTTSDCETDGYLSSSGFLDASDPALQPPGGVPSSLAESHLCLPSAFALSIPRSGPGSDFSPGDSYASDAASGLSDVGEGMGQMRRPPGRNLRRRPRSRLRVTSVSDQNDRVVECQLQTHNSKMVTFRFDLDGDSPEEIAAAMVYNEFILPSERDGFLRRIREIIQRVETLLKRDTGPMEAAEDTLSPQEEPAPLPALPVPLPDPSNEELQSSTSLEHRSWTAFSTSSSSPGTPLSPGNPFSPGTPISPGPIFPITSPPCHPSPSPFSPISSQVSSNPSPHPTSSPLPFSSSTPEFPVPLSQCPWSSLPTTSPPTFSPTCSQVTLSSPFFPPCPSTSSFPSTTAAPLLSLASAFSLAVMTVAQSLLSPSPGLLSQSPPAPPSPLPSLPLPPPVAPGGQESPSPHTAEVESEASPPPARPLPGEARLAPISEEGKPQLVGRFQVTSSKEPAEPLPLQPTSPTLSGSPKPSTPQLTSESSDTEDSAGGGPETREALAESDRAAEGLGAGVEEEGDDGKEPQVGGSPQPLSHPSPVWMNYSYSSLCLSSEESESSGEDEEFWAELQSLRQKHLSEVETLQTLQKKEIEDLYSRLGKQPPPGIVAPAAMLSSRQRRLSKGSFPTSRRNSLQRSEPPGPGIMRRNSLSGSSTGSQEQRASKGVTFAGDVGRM
NEK4, sequence (P51957 whole entry): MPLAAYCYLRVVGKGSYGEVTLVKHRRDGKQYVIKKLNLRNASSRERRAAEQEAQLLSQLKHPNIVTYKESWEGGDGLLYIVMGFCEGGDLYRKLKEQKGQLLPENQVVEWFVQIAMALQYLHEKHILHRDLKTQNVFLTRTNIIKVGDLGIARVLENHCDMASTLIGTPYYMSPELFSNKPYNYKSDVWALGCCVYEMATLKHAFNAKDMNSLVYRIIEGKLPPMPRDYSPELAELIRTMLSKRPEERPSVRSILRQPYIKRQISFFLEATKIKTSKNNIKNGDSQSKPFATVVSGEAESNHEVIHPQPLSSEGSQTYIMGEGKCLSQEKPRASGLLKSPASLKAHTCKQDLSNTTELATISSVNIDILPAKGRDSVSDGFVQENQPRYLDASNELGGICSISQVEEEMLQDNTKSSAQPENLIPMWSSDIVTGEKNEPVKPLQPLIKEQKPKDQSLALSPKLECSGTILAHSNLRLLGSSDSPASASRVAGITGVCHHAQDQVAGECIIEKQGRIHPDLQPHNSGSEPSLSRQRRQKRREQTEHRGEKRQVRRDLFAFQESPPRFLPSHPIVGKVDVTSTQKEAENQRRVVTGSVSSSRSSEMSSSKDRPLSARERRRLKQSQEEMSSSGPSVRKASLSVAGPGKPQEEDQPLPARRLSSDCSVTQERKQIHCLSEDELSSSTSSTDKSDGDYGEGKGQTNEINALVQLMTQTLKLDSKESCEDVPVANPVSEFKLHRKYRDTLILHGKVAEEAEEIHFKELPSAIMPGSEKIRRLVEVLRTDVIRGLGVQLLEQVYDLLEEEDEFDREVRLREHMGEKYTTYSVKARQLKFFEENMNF
T5 sequence (P29597 589-875 limits assumed): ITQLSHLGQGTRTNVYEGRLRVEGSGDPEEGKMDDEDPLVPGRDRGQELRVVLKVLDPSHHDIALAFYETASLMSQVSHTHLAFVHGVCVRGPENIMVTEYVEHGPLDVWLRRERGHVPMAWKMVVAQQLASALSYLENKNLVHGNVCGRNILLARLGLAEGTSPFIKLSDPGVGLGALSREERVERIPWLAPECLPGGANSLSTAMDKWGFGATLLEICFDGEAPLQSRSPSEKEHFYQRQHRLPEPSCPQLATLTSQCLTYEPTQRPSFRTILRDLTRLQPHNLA
RET, sequence (P07949 29-1114): as the sequence (P07949 29-1114 V804M) above, with M776V counted along it
TRKA, sequence (P04629 33-796): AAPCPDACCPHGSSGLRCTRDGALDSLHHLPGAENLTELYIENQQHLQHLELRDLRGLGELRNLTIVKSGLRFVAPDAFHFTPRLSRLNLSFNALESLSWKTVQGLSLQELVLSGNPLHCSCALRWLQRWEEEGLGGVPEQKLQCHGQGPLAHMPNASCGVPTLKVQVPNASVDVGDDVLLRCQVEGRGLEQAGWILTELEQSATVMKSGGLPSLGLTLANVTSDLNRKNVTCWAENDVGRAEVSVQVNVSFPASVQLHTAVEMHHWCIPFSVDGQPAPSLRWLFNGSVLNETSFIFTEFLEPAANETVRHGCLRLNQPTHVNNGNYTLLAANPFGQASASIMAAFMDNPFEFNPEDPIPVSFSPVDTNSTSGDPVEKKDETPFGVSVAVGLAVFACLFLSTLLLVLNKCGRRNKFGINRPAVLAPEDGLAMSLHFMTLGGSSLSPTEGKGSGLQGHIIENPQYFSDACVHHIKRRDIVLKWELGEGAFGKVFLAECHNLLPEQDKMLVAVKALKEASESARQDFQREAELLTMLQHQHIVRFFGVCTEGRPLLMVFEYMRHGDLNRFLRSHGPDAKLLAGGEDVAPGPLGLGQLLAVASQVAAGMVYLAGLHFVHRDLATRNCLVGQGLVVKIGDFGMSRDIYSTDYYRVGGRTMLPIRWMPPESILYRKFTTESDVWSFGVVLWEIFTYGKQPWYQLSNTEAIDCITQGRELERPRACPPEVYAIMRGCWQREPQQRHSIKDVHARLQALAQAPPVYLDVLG

Take `CNc1c(-c2ccc(C(=O)N3CCC(N4CCOCC4)CC3)cc2)cnc2[nH]cc(Cl)c12` [Compound 96, (4-(3-chloro-4-(methylamino)-1H-pyrrolo[2,3-b]pyridin-5-yl)phenyl)(4-morpholinopiperidin-1-yl)methanone]: the remaining binding at 1 µM at TRKA was 11%; at RET, 80%; in [1] it was 100%; at QSK, 76%; at PRKG2, 100%; on ACVR1, 81%. Besides, the remaining binding at 1 µM on BRAF is 90%; in [2], 89%; at NEK4, 65%; at RET(V804M) it was 61%; on EGFR(G719C), 100%; on WNK4 it was 84%. The remaining binding at 1 µM in [3] stood at 52%.

Regarding `O=C(c1ccc(-c2cnc3[nH]cc(Cl)c3c2NC2CCCC2)cc1)N1CCC(N2CCOCC2)CC1` [Compound 101, (4-(3-chloro-4-(cyclopentylamino)-1H-pyrrolo[2,3-b]pyridin-5-yl)phenyl)(4-morpholinopiperidin-1-yl)methanone], the remaining binding at 1 µM was found to be 49% on TRKA; 85% at RET; 10% in assay [1]; 97% at QSK; 100% at PRKG2; 100% at ACVR1. For the same molecule, the remaining binding at 1 µM at BRAF is 84%; in assay [2], 100%; at NEK4 it was 100%; on RET(V804M), 99%; at EGFR(G719C), 91%; at WNK4 it was 100%. In addition, the remaining binding at 1 µM in assay [3] came to 95%.

With `CNc1c(-c2cnn([C@H]3CCN(C(C)=O)C[C@@H]3F)c2)cnc2[nH]cc(Cl)c12` [Compound 77, 1-((3S,4S)-4-(4-(3-chloro-4-(methylamino)-1H-pyrrolo[2,3-b]pyridin-5-yl)-1H-pyrazol-1-yl)-3-fluoropiperidin-1-yl)ethan-1-one], the remaining binding at 1 µM is 0.65% at TRKA; 27% at RET; 95% in assay [1]; 76% on QSK; 100% on PRKG2; 100% at ACVR1. Also, the remaining binding at 1 µM on BRAF is 91%; in [2], 84%; on NEK4, 82%; on RET(V804M) it was 52%; at EGFR(G719C), 91%; at WNK4, 77%. Besides, the remaining binding at 1 µM in assay [3] came to 31%.

(Values after patent US12275731B2, “Azaindole inhibitors of wild-type and mutant forms of LRRK2” (DANA-FARBER CANCER INSTITUTE, INC., priority 2018, dated 2025).)
